Where a name gives a salt, the structure may show the parent alone.
How the values were obtained:
A375 (melanoma) = test: SRB cytotoxicity assay, A375; type: cell-based, human; conditions: Homo sapiens, A-375; Table 2; SRB assay, 72 h of treatment; cut-off 30 μM; read-out: Cytotoxicity (EC50) A375
Experimental: (§1) Sulforhodamine (SRB) assays were performed to evaluate the cytotoxicity of the compounds. First, the cytotoxicity of the different rhodamines was determined; the results of these assays are compiled in Table 1 and Table 2 and depicted in Figure 1.
(§2) Experimental equipment: as previously described biological assays were performed as previously reported employing cell lines obtained from the Department of Oncology [Martin-Luther-University Halle Wittenberg; they were bought from ATCC [2, 4, 7]]. Rhodamine 101 B, as well as asiatic acid, were obtained from local vendors and used as received.
(§3) For the SRB assay and staining experiments: as previously described.

[1] = tested on: HT29 (colorectal carcinoma); test: SRB cytotoxicity assay, HT29; type: cell-based, human; conditions: Homo sapiens, HT-29; Table 2; SRB assay, 72 h of treatment; cut-off 30 μM; read-out: Cytotoxicity (EC50) HT29
Experimental: as §1, §2, §3

[2] = tested on: MCF7 (breast adenocarcinoma); test: SRB cytotoxicity assay, MCF7; type: cell-based, human; conditions: Homo sapiens, MCF7; Table 2; SRB assay, 72 h of treatment; cut-off 30 μM; read-out: Cytotoxicity (EC50) MCF7
Experimental: as §1, §2, §3

[3] = tested on: A2780 (ovarian carcinoma); test: SRB cytotoxicity assay, A2780; type: cell-based, human; conditions: Homo sapiens, A2780; Table 2; SRB assay, 72 h of treatment; cut-off 30 μM; read-out: Cytotoxicity (EC50) A2780
Experimental: as §1, §2, §3

[4] = tested on: HeLa (cervical adenocarcinoma); test: SRB cytotoxicity assay, HeLa; type: cell-based, human; conditions: Homo sapiens, HeLa; Table 2; SRB assay, 72 h of treatment; cut-off 30 μM; read-out: Cytotoxicity (EC50) HeLa
Experimental: as §1, §2, §3

[5] = SRB cytotoxicity assay, NIH 3T3; type: cell-based, murine; conditions: mouse, NIH 3T3 non-malignant fibroblasts, Table 2, 72 h of treatment, cut-off 30 μM
Experimental: as §1, §2, §3

In the case of `CC(=O)OC[C@@]1(C)C2CC[C@]3(C)[C@H](CC=C4[C@@H]5[C@@H](C)[C@H](C)CC[C@]5(C(=O)N5CCN(C(=O)c6ccccc6-c6c7ccc(=[N+](C)C)cc-7oc7cc(N(C)C)ccc67)CC5)CC[C@]43C)[C@@]2(C)C[C@@H](OC(C)=O)[C@@H]1OC(C)=O` (stereo partly drawn) (as salt: chloride) [compound 6, (2α,3β,4α)-9-[2-{[4-(2,3,23-Tris(acetyloxy)-urs-12-en-28-oyl)-Piperazinyl]Carbonyl}Phenyl]-3,6-bis(Dimethylamino)-Xanthylium Chloride], the melting point is reported as 248 to 250 °C.

`CCCN(CCC)c1ccc2c(-c3ccccc3C(=O)N3CCN(C(=O)[C@]45CC[C@@H](C)[C@H](C)[C@H]4C4=CC[C@@H]6[C@@]7(C)C[C@@H](OC(C)=O)[C@H](OC(C)=O)[C@@](C)(COC(C)=O)C7CC[C@@]6(C)[C@]4(C)CC5)CC3)c3ccc(=[N+](CCC)CCC)cc-3oc2c1` (stereo partly drawn) (as salt: chloride) [compound 8, (2α,3β,4α)-9-[2-{[4-(2,3,23-Tris(Acetyloxy)-urs-12-en-28-oyl)-Piperazinyl]Carbonyl}Phenyl]-3,6-Bis(Dipropylamino)-Xanthylium Chloride] gave a melting point of 226 to 228 °C.

With `CCCCN(CCCC)c1ccc2c(-c3ccccc3C(=O)N3CCN(C(=O)[C@]45CC[C@@H](C)[C@H](C)[C@H]4C4=CC[C@@H]6[C@@]7(C)C[C@@H](OC(C)=O)[C@H](OC(C)=O)[C@@](C)(COC(C)=O)C7CC[C@@]6(C)[C@]4(C)CC5)CC3)c3ccc(=[N+](CCCC)CCCC)cc-3oc2c1` (stereo partly drawn) (as salt: chloride) [compound 9, (2α,3β,4α)-9-[2-{[4-(2,3,23-Tris(Acetyloxy)-urs-12-en-28-oyl)-Piperazinyl]Carbonyl}Phenyl]-3,6-Bis(Dibutylamino)-Xanthylium Chloride] the melting point was 222 to 226 °C.

Compound `CC(=O)OC[C@@]1(C)C2CC[C@]3(C)[C@H](CC=C4[C@@H]5[C@@H](C)[C@H](C)CC[C@]5(C(=O)N5CCN(C(=O)c6ccccc6C6=c7cc8c9c(c7Oc7c6cc6c%10c7CCCN%10CCC6)CCC[N+]=9CCC8)CC5)CC[C@]43C)[C@@]2(C)C[C@@H](OC(C)=O)[C@@H]1OC(C)=O` (some centres unmarked) (as salt: chloride) [compound 10] has a melting point of 244 to 247 °C.

Work on `CC(=O)OC[C@@]1(C)C2CC[C@]3(C)[C@H](CC=C4[C@@H]5[C@@H](C)[C@H](C)CC[C@]5(C(=O)N5CCCN(C(=O)c6ccccc6-c6c7ccc(=[N+](C)C)cc-7oc7cc(N(C)C)ccc67)CC5)CC[C@]43C)[C@@]2(C)C[C@@H](OC(C)=O)[C@@H]1OC(C)=O` (stereo partly drawn) (as salt: chloride) [compound 11, (2α,3β,4α)-9-[2-{[4-(2α,3β,23-Tris(Acetyloxy)-urs-12-en-28-oyl)-Homopiperazinyl]Carbonyl}Phenyl]-3,6-Bis(Dimethylamino)-Xanthylium Chloride] yielded a melting point of 258 to 260 °C.

For `CCCN(CCC)c1ccc2c(-c3ccccc3C(=O)N3CCCN(C(=O)[C@]45CC[C@@H](C)[C@H](C)[C@H]4C4=CC[C@@H]6[C@@]7(C)C[C@@H](OC(C)=O)[C@H](OC(C)=O)[C@@](C)(COC(C)=O)C7CC[C@@]6(C)[C@]4(C)CC5)CC3)c3ccc(=[N+](CCC)CCC)cc-3oc2c1` (stereo partly drawn) (as salt: chloride) [compound 13, (2α,3β,4α)-9-[2-{[4-(2α,3β,23-Tris(Acetyloxy)-urs-12-en-28-oyl)-Homopiperazinyl]Carbonyl}Phenyl]-3,6-Bis(Dipropylamino)-Xanthylium Chloride], the melting point was 224 to 225 °C.

With `CCCCN(CCCC)c1ccc2c(-c3ccccc3C(=O)N3CCCN(C(=O)[C@]45CC[C@@H](C)[C@H](C)[C@H]4C4=CC[C@@H]6[C@@]7(C)C[C@@H](OC(C)=O)[C@H](OC(C)=O)[C@@](C)(COC(C)=O)C7CC[C@@]6(C)[C@]4(C)CC5)CC3)c3ccc(=[N+](CCCC)CCCC)cc-3oc2c1` (stereo partly drawn) (as salt: chloride) [compound 14, (2α,3β,4α)-9-[2-{[4-(2α,3β,23-Tris(Acetyloxy)-urs-12-en-28-oyl)-Homopiperazinyl]Carbonyl}Phenyl]-3,6-Bis(Dibutylamino)-Xanthylium Chloride] the melting point was 210 to 213 °C.

`CC(=O)OC[C@@]1(C)C2CC[C@]3(C)[C@H](CC=C4[C@@H]5[C@@H](C)[C@H](C)CC[C@]5(C(=O)N5CCCN(C(=O)c6ccccc6C6=c7cc8c9c(c7Oc7c6cc6c%10c7CCCN%10CCC6)CCC[N+]=9CCC8)CC5)CC[C@]43C)[C@@]2(C)C[C@@H](OC(C)=O)[C@@H]1OC(C)=O` (some centres unmarked) (as salt: chloride) [compound 15] showed a melting point of 287 to 289 °C.

With `CC(=O)OC[C@@]1(C)C2CC[C@]3(C)[C@H](CC=C4[C@@H]5[C@@H](C)[C@H](C)CC[C@]5(C(=O)N5CCCN(C(=O)c6ccccc6-c6c7ccc(=[N+](C)C)cc-7oc7cc(N(C)C)ccc67)CCC5)CC[C@]43C)[C@@]2(C)C[C@@H](OC(C)=O)[C@@H]1OC(C)=O` (stereo partly drawn) (as salt: chloride) [compound 16, (2α,3β,4α)-9-[2-[{4-(2α,3β,23-Tris(Acetyloxy)-urs-12-en-28-oyl)-1,5-Diazocan-1-Yl]Carbonyl}Phenyl]-3,6-Bis(Dimethylamino)-Xanthylium Chloride] the melting point was 224 to 226 °C.

`CCN(CC)c1ccc2c(-c3ccccc3C(=O)N3CCCN(C(=O)[C@]45CC[C@@H](C)[C@H](C)[C@H]4C4=CC[C@@H]6[C@@]7(C)C[C@@H](OC(C)=O)[C@H](OC(C)=O)[C@@](C)(COC(C)=O)C7CC[C@@]6(C)[C@]4(C)CC5)CCC3)c3ccc(=[N+](CC)CC)cc-3oc2c1` (stereo partly drawn) (as salt: chloride) [compound 17, (2α,3β,4α)-9-[2-[{4-(2α,3β,23-Tris(Acetyloxy)-urs-12-en-28-oyl)-1,5-Diazocan-1-Yl]Carbonyl}Phenyl]-3,6-Bis(Diethylamino)-Xanthylium Chloride] gave a melting point of 222 to 227 °C.

`CCCN(CCC)c1ccc2c(-c3ccccc3C(=O)N3CCCN(C(=O)[C@]45CC[C@@H](C)[C@H](C)[C@H]4C4=CC[C@@H]6[C@@]7(C)C[C@@H](OC(C)=O)[C@H](OC(C)=O)[C@@](C)(COC(C)=O)C7CC[C@@]6(C)[C@]4(C)CC5)CCC3)c3ccc(=[N+](CCC)CCC)cc-3oc2c1` (stereo partly drawn) (as salt: chloride) [compound 18, (2α,3β,4α)-9-[2-[{4-(2α,3β,23-Tris(Acetyloxy)-urs-12-en-28-oyl)-1,5-Diazocan-1-Yl]Carbonyl}Phenyl]-3,6-Bis(Dipropylamino)-Xanthylium Chloride] showed a melting point of 207 to 209 °C.

With `CC(=O)OC[C@@]1(C)C2CC[C@]3(C)[C@H](CC=C4[C@@H]5[C@@H](C)[C@H](C)CC[C@]5(C(=O)N5CCCN(C(=O)c6ccccc6-c6c7ccc(=[N+](C)C)cc-7oc7cc(N(C)C)ccc67)CCC5)CC[C@]43C)[C@@]2(C)C[C@@H](OC(C)=O)[C@@H]1OC(C)=O` (stereo partly drawn) [compound 16, (2α,3β,4α)-9-[2-[{4-(2α,3β,23-Tris(Acetyloxy)-urs-12-en-28-oyl)-1,5-Diazocan-1-Yl]Carbonyl}Phenyl]-3,6-Bis(Dimethylamino)-Xanthylium Chloride] the EC50 (A375 (melanoma)) was 70 ± 10 nM, the EC50 [1] was 50 ± 20 nM and the EC50 [2] was 50 ± 10 nM. For the same compound, the EC50 [3] was 6 ± 1 nM, the EC50 [4] was 500 ± 200 nM and the EC50 at 72 h [5] was 400 ± 90 nM.

Compound `CCN(CC)c1ccc2c(-c3ccccc3C(=O)N3CCCN(C(=O)[C@]45CC[C@@H](C)[C@H](C)[C@H]4C4=CC[C@@H]6[C@@]7(C)C[C@@H](OC(C)=O)[C@H](OC(C)=O)[C@@](C)(COC(C)=O)C7CC[C@@]6(C)[C@]4(C)CC5)CCC3)c3ccc(=[N+](CC)CC)cc-3oc2c1` (stereo partly drawn) [compound 17, (2α,3β,4α)-9-[2-[{4-(2α,3β,23-Tris(Acetyloxy)-urs-12-en-28-oyl)-1,5-Diazocan-1-Yl]Carbonyl}Phenyl]-3,6-Bis(Diethylamino)-Xanthylium Chloride] has an EC50 (A375 (melanoma)) of 30 ± 10 nM, an EC50 [1] of 30 ± 10 nM and an EC50 [2] of 25 ± 20 nM. It also gave an EC50 [3] of 7 ± 2 nM, an EC50 [4] of 60 ± 10 nM and an EC50 at 72 h [5] of 450 ± 20 nM.

In the case of `CCCN(CCC)c1ccc2c(-c3ccccc3C(=O)N3CCCN(C(=O)[C@]45CC[C@@H](C)[C@H](C)[C@H]4C4=CC[C@@H]6[C@@]7(C)C[C@@H](OC(C)=O)[C@H](OC(C)=O)[C@@](C)(COC(C)=O)C7CC[C@@]6(C)[C@]4(C)CC5)CCC3)c3ccc(=[N+](CCC)CCC)cc-3oc2c1` (stereo partly drawn) [compound 18, (2α,3β,4α)-9-[2-[{4-(2α,3β,23-Tris(Acetyloxy)-urs-12-en-28-oyl)-1,5-Diazocan-1-Yl]Carbonyl}Phenyl]-3,6-Bis(Dipropylamino)-Xanthylium Chloride], the EC50 (A375 (melanoma)) is reported as 7.4 ± 0.9 nM, the EC50 [1] is reported as 12 ± 4 nM and the EC50 [2] is reported as 17 ± 2 nM. For the same compound, the EC50 [3] was 1.9 ± 0.2 nM, the EC50 [4] was 70 ± 20 nM and the EC50 at 72 h [5] was 360 ± 50 nM.

For `CCCCN(CCCC)c1ccc2c(-c3ccccc3C(=O)N3CCCN(C(=O)[C@]45CC[C@@H](C)[C@H](C)[C@H]4C4=CC[C@@H]6[C@@]7(C)C[C@@H](OC(C)=O)[C@H](OC(C)=O)[C@@](C)(COC(C)=O)C7CC[C@@]6(C)[C@]4(C)CC5)CCC3)c3ccc(=[N+](CCCC)CCCC)cc-3oc2c1` (stereo partly drawn) [compound 19, (2α,3β,4α)-9-[2-[{4-(2α,3β,23-Tris(Acetyloxy)-urs-12-en-28-oyl)-1,5-Diazocan-1-Yl]Carbonyl}Phenyl]-3,6-Bis(Dibutylamino)-Xanthylium Chloride], the EC50 (A375 (melanoma)) was 30 ± 10 nM, the EC50 [1] was 30 ± 10 nM and the EC50 [2] was 40 ± 5 nM. It also gave an EC50 [3] of 6 ± 2 nM, an EC50 [4] of 170 ± 80 nM and an EC50 at 72 h [5] of 240 ± 80 nM.
